Test results reported in ChEMBL document CHEMBL1201862, “PubChem BioAssay data set” (2004).
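Cells were grown in 96-well plates and exposed to each compound for 48 hours at five concentrations; endpoints were interpolated linearly between bracketing concentrations, or set to the highest concentration if not reached. GI50 = concentration required for 50% inhibition of growth.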 Active and inactive are the calls of the source. Cut-off read from the data, not from the text of the source: active = GI50 up to about 1.1 µM and inactive = higher.

Columns and labels:
Test in all cases: DTP human tumour cell line panel, 48 h
CCRF-CEM = test system: CCRF-CEM
COLO 205 = test system: COLO 205
HCT-15 = test system: HCT-15
HOP-62 = test system: HOP-62
HT-29 = test system: HT-29
IGROV-1 = test system: IGROV-1
K562 = test system: K562
MOLT-4 = test system: MOLT-4
NCI-H522 = test system: NCI-H522
OVCAR-3 = test system: OVCAR-3
OVCAR-8 = test system: OVCAR-8
RXF 393 = test system: RXF 393
SF-268 = test system: SF-268
SF-539 = test system: SF-539
SK-MEL-28 = test system: SK-MEL-28
SK-MEL-2 = test system: SK-MEL-2
SN12C = test system: SN12C
SNB-19 = test system: SNB-19
UACC-257 = test system: UACC-257
UACC-62 = test system: UACC-62

| SMILES | GI50 (CCRF-CEM) | GI50 (COLO 205) | GI50 (HCT-15) [µM] | GI50 (HOP-62) | GI50 (HT-29) | GI50 (IGROV-1) | GI50 (K562) | GI50 (MOLT-4) | GI50 (NCI-H522) | GI50 (OVCAR-3) | GI50 (OVCAR-8) | GI50 (RXF 393) | GI50 (SF-268) | GI50 (SF-539) | GI50 (SK-MEL-28) | GI50 (SK-MEL-2) | GI50 (SN12C) | GI50 (SNB-19) | GI50 (UACC-257) | GI50 (UACC-62) |
| --- | --- | --- | --- | --- | --- | --- | --- | --- | --- | --- | --- | --- | --- | --- | --- | --- | --- | --- | --- | --- |
| Nc1c(S(=O)(=O)O)cc2cc(S(=O)(=O)O)ccc2c1/N=N/c1ccc(-c2ccc(/N=N/c3c(N)c(S(=O)(=O)O)cc4cc(S(=O)(=O)O)ccc34)c(S(=O)(=O)O)c2)cc1 | > 89.3 µM (inactive) | > 100 µM (inactive) | > 91.4 | > 100 µM (inactive) | > 100 µM (inactive) | 54.7 µM (inactive) | > 100 µM (inactive) | 95.7 µM (inactive) | > 100 µM (inactive) | 71.3 µM (inactive) | > 100 µM (inactive) | > 100 µM (inactive) | > 100 µM (inactive) | > 100 µM (inactive) | > 100 µM (inactive) | > 100 µM (inactive) | > 100 µM (inactive) | > 100 µM (inactive) | > 100 µM (inactive) | > 100 µM (inactive) |
| COc1cccc2c1C(=O)c1c(O)c3c(c(O)c1C2=O)CC(O)(C(=O)CO)CC3OC1CC(N)C(I)C(C)O1 (centres undefined) | 1.08 µM (active) | 13.3 µM (inactive) | 1.83 | 1.6 µM (inactive) | 3.15 µM (inactive) | 1.88 µM (inactive) | 4.76 µM (inactive) | 0.335 µM (active) | 2.9 µM (inactive) | > 33.4 µM (inactive) | 3.58 µM (inactive) | 2.44 µM (inactive) | 15.9 µM (inactive) | 2.62 µM (inactive) | 15.2 µM (inactive) | 9.79 µM (inactive) | 2.38 µM (inactive) | 3.12 µM (inactive) | > 29.3 µM (inactive) | 1.58 µM (inactive) |
| CC(C)N1CSC(=S)N(Cc2ccccc2)C1 | 2.78 µM (inactive) | 3.94 µM (inactive) | 3.4 | > 10 µM (inactive) | 2.43 µM (inactive) | > 10 µM (inactive) | 2.48 µM (inactive) | 2.63 µM (inactive) |  | 3.87 µM (inactive) | 4.75 µM (inactive) | 2.37 µM (inactive) | 4.38 µM (inactive) | 1.48 µM (inactive) | 3.78 µM (inactive) |  | 4.49 µM (inactive) | 0.752 µM (active) |  | 4.06 µM (inactive) |
| N#C/C(=C\NC(=S)Nc1ccc(S(=O)(=O)Nc2ccccn2)cc1)C(N)=O | 42.2 µM (inactive) | > 100 µM (inactive) | > 100 | > 100 µM (inactive) | > 100 µM (inactive) | > 100 µM (inactive) | 47.9 µM (inactive) | 25.5 µM (inactive) | > 100 µM (inactive) | > 100 µM (inactive) | > 100 µM (inactive) | > 100 µM (inactive) | > 100 µM (inactive) | > 100 µM (inactive) | > 100 µM (inactive) | > 100 µM (inactive) | > 100 µM (inactive) | > 100 µM (inactive) | > 100 µM (inactive) | > 100 µM (inactive) |
| CC(=O)NNc1nc(C)c(C(=O)NNC(=O)C(=O)Nc2ccc([N+](=O)[O-])cc2[N+](=O)[O-])s1 | 22.3 µM (inactive) | > 100 µM (inactive) | > 100 | > 100 µM (inactive) | 55.3 µM (inactive) | > 100 µM (inactive) | 39.4 µM (inactive) | 37.1 µM (inactive) | 30.6 µM (inactive) |  | > 100 µM (inactive) | 80.4 µM (inactive) | > 100 µM (inactive) | > 100 µM (inactive) | > 100 µM (inactive) | > 100 µM (inactive) | > 100 µM (inactive) | > 100 µM (inactive) | > 100 µM (inactive) | > 100 µM (inactive) |
| CSc1nc(SC)c2cnn(CC3CO3)c2n1 (centres undefined) | 12.4 µM (inactive) | 18.7 µM (inactive) | 25.2 | 18.7 µM (inactive) | 22 µM (inactive) | 19.4 µM (inactive) | 26.5 µM (inactive) | 2.17 µM (inactive) | 26.2 µM (inactive) | 25.1 µM (inactive) | 9.18 µM (inactive) | 17.8 µM (inactive) | 9.73 µM (inactive) | 19.5 µM (inactive) | 13.9 µM (inactive) | 16.7 µM (inactive) | 20.2 µM (inactive) | 31.2 µM (inactive) | 19.2 µM (inactive) | 19.2 µM (inactive) |
| CC(=O)NC(c1nc2cc(C)c(C)cc2[nH]1)c1nc2cc(C)c(C)cc2[nH]1 | 7.05 µM (inactive) | 18 µM (inactive) | 21.2 |  | 15.2 µM (inactive) | 11.7 µM (inactive) | 1.02 µM (active) | 2.86 µM (inactive) | 5.12 µM (inactive) | 13.9 µM (inactive) | 20 µM (inactive) | 26.3 µM (inactive) | 23.2 µM (inactive) | 14.1 µM (inactive) | 17.7 µM (inactive) | 36.8 µM (inactive) | 15.9 µM (inactive) | 41.5 µM (inactive) | 21.3 µM (inactive) | 32.7 µM (inactive) |
| O=C(NN1C(=O)C(Cl)C1c1ccc([N+](=O)[O-])cc1)c1ccccc1O (centres undefined) | > 100 µM (inactive) | > 100 µM (inactive) |  | > 100 µM (inactive) | > 100 µM (inactive) | > 100 µM (inactive) | > 100 µM (inactive) | > 100 µM (inactive) | > 100 µM (inactive) | > 100 µM (inactive) | > 100 µM (inactive) | > 100 µM (inactive) | > 100 µM (inactive) | > 100 µM (inactive) | > 100 µM (inactive) | > 100 µM (inactive) | > 100 µM (inactive) | 68.1 µM (inactive) | > 100 µM (inactive) | > 100 µM (inactive) |
| Nc1nc2cc(COc3ccc(C(=O)O)cc3)ccc2nc1-c1ccccc1 | > 10 µM (inactive) | > 10 µM (inactive) | > 10 | > 10 µM (inactive) | > 10 µM (inactive) | > 10 µM (inactive) | > 10 µM (inactive) | > 10 µM (inactive) | > 10 µM (inactive) | > 10 µM (inactive) |  | > 10 µM (inactive) | > 10 µM (inactive) | > 10 µM (inactive) | > 10 µM (inactive) | > 10 µM (inactive) | > 10 µM (inactive) | > 10 µM (inactive) | > 10 µM (inactive) | > 10 µM (inactive) |
| CCOC(=O)C1=C(C)N(NC(N)=O)C2(O)CCCC(=O)C12C (centres undefined) |  | > 100 µM (inactive) | > 100 |  | > 100 µM (inactive) | > 100 µM (inactive) |  |  | > 100 µM (inactive) | > 100 µM (inactive) | > 100 µM (inactive) | > 100 µM (inactive) |  | > 100 µM (inactive) | > 100 µM (inactive) | > 100 µM (inactive) | > 100 µM (inactive) | > 100 µM (inactive) | > 100 µM (inactive) | > 100 µM (inactive) |
| CCOC(=O)C1=C(C)N(c2ccc(OC)cc2)C2(O)C=CC(O)=C3C(=O)c4ccccc4C(=O)C312 (centres undefined) | 3.4 µM (inactive) | 11.5 µM (inactive) | 6.71 | 13.8 µM (inactive) | 17.9 µM (inactive) | 3.56 µM (inactive) | 12.6 µM (inactive) | 3.89 µM (inactive) | 2.57 µM (inactive) | 3.06 µM (inactive) | 14.9 µM (inactive) |  | 2.13 µM (inactive) | 6.92 µM (inactive) |  | 16.3 µM (inactive) | 14.8 µM (inactive) | 13 µM (inactive) | 15.7 µM (inactive) | 12.5 µM (inactive) |
| S=CN1CCCCC1 | > 100 µM (inactive) | > 100 µM (inactive) | > 100 | > 100 µM (inactive) | > 100 µM (inactive) | > 100 µM (inactive) | > 100 µM (inactive) | > 100 µM (inactive) | > 100 µM (inactive) | > 100 µM (inactive) | > 100 µM (inactive) |  | > 100 µM (inactive) | > 100 µM (inactive) | > 100 µM (inactive) | > 100 µM (inactive) | > 100 µM (inactive) | > 100 µM (inactive) | > 100 µM (inactive) | > 100 µM (inactive) |
| CC1(c2sccc2Cl)CC(c2sccc2Cl)=C(C#N)C(=C(C#N)C#N)N1 (centres undefined) | 38.4 µM (inactive) | 23.1 µM (inactive) | 17.9 | 19.3 µM (inactive) | 24 µM (inactive) | 23 µM (inactive) |  | 38.7 µM (inactive) | 19.1 µM (inactive) | 14.9 µM (inactive) | 20.8 µM (inactive) | 16.4 µM (inactive) | 20.2 µM (inactive) | 19.8 µM (inactive) | 18.2 µM (inactive) | 20.3 µM (inactive) | 20.2 µM (inactive) | 18.3 µM (inactive) | 22.4 µM (inactive) | 18.3 µM (inactive) |
| c1ccc(C(c2ccccc2)[P+](c2ccccc2)(c2ccccc2)c2ccccc2)cc1 | 0.317 µM (active) | 0.289 µM (active) | 4.62 | 0.867 µM (active) | 0.332 µM (active) | 0.394 µM (active) | 0.427 µM (active) | 0.419 µM (active) | 0.223 µM (active) | 0.336 µM (active) | 0.542 µM (active) | 2.24 µM (inactive) | 0.556 µM (active) | 1.27 µM (inactive) | 0.446 µM (active) | 0.305 µM (active) | 0.592 µM (active) | 0.526 µM (active) | 0.348 µM (active) | 0.332 µM (active) |
